# In patent US20090170812A1, “Transcription factor modulating compounds and methods of use thereof” (priority 2006, published 2009):
# Tests used:
# LcrF (VirF) = LcrF (VirF) (Yersinia pestis, UniProt P28808); assay: biochemical; format: binding, Y. pseudotuberculosis
# P. aeruginosa = assay: Whole cell assay: cytotoxicity of P. aeruginosa toward J774 cells (CytoTox 96, LDH release); details: percent cytotoxicity of treated P. aeruginosa toward J774 cells
# ExsA = molecular target: T1, ExsA (Pseudomonas aeruginosa, UniProt P26993); assay: In vitro activity of Mar inhibitors against ExsA: cell-free DNA binding assay; details: purified ExsA from P. aeruginosa, inhibition of DNA binding in vitro
# T1 construct: made in house
# T1 sequence (P26993 1-278): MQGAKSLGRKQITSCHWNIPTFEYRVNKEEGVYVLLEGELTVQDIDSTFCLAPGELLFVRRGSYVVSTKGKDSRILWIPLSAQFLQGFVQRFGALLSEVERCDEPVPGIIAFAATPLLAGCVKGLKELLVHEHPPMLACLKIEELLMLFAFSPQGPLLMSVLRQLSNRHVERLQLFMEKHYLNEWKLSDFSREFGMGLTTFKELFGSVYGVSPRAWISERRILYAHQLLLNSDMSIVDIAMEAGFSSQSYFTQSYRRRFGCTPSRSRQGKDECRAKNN
# [1] = test system: Yersinia pseudotuberculosis
# LcrF (VirF), sequence (P28808 whole entry, looked up): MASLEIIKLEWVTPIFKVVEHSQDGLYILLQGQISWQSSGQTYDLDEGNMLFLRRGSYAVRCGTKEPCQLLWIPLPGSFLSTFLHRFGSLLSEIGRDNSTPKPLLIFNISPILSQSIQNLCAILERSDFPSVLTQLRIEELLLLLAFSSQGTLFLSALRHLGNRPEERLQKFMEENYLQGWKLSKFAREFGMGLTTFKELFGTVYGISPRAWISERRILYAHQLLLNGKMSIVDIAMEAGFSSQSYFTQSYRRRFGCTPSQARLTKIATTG
Structure (SMILES),EC50 (LcrF (VirF)),Cytotoxicity at 50 μg/mL Pseudomonas (P. aeruginosa),EC50 (ExsA),Cytotoxicity at 50 μg/mL Yersinia [1]
COc1ccc(/C=C/C(=O)Nc2ccc(-c3nc4ccc([N+](=O)[O-])cc4n3O)cc2)c(OC)c1 [J],> 25.1 µM,* (percent cytotoxicities above 75% at 50 mg/mL),< 10 µM,** (key: *: percent cytotoxicity above 75% at 50 μg/mL; **: cytotoxicities below 75% at 50 μg/mL)
N#Cc1ccc2nc(-c3ccc(NC(=O)c4ccc(F)cc4)cc3)n(O)c2c1 [K],> 25.1 µM,* (percent cytotoxicities above 75% at 50 mg/mL),10.1 to 25 µM,* (key: *: percent cytotoxicity above 75% at 50 μg/mL; **: cytotoxicities below 75% at 50 μg/mL)
O=C(Nc1ccc(-c2nc3ccc([N+](=O)[O-])cc3n2O)cc1)c1ccc(F)c(F)c1 [P],10.1 to 25 µM,* (percent cytotoxicities above 75% at 50 mg/mL),10.1 to 25 µM,* (key: *: percent cytotoxicity above 75% at 50 μg/mL; **: cytotoxicities below 75% at 50 μg/mL)
O=C(Nc1ccc(-c2nc3ccc([N+](=O)[O-])cc3n2O)cc1)c1ccc(-c2cncnc2)cc1 [R],> 25.1 µM,* (percent cytotoxicities above 75% at 50 mg/mL),10.1 to 25 µM,** (key: *: percent cytotoxicity above 75% at 50 μg/mL; **: cytotoxicities below 75% at 50 μg/mL)
Cc1cc(C(=O)Nc2ccc(-c3nc4ccc([N+](=O)[O-])cc4n3O)cc2)ccc1F [S],10.1 to 25 µM,* (percent cytotoxicities above 75% at 50 mg/mL),10.1 to 25 µM,* (key: *: percent cytotoxicity above 75% at 50 μg/mL; **: cytotoxicities below 75% at 50 μg/mL)
COc1cc(F)ccc1C(=O)Nc1ccc(-c2nc3ccc([N+](=O)[O-])cc3n2O)cc1 [T],< 10 µM,* (percent cytotoxicities above 75% at 50 mg/mL),< 10 µM,** (key: *: percent cytotoxicity above 75% at 50 μg/mL; **: cytotoxicities below 75% at 50 μg/mL)
O=C(Nc1ccc(-c2nc3ncc([N+](=O)[O-])cc3n2O)cc1)c1ccc(F)cc1 [X],10.1 to 25 µM,* (percent cytotoxicities above 75% at 50 mg/mL),10.1 to 25 µM,* (key: *: percent cytotoxicity above 75% at 50 μg/mL; **: cytotoxicities below 75% at 50 μg/mL)
CC(=O)c1ccc(C(=O)Nc2ccc(-c3nc4ncc([N+](=O)[O-])cc4n3O)cc2)cc1 [Y],10.1 to 25 µM,* (percent cytotoxicities above 75% at 50 mg/mL),< 10 µM,* (key: *: percent cytotoxicity above 75% at 50 μg/mL; **: cytotoxicities below 75% at 50 μg/mL)
